{"source": "patent US20060063930A1", "about": "“Compositions and methods comprising proteinase activated receptor antagonists” (priority 2004, published 2006)", "key": {"[1]": {"tested_on": "PAR-2", "assay": "Inhibition of PAR-2 activating peptide (AP2) calcium signaling in cells pretreated with antagonist", "assay_type": "cell-based, human", "design": "key to PAR-2 AP2 Signaling Treated/Control (T/C) / PAR-2 AP2 Signaling Treated/Control: AUC of calcium mobilization, treated ÷ control wells", "conditions": "for PAR-2 antagonist activity in vitro (in words): pretreated cells, then P2AP", "summary_of_the_method": "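LLC cells loaded with Fluo-4 (4 uM final), and U87-MG glioma cells loaded with FLIPR Calcium 3 dye with 2.5 mM probenecid, were pretreated with antagonist, then stimulated with PAR-2 activating peptide. Initial screening was at 1 mM. Calcium AUC of treated over control wells is reported as T/C.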"}, "[2]": {"tested_on": "BALB/c mice, arthritis", "assay": "Anti-collagen II antibody/LPS arthritis in mice (hind feet thickness)", "assay_type": "in vivo, mouse", "conditions": "200 mg/kg/day intraperitoneally for 7 days", "procedure": "On day 0, BALB/c mice were injected intravenously with the 1-2 mg 1B11 monoclonal anti-collagen II antibody. On day 1, animals were injected intraperitoneally with 20 μg LPS, and treatment with PAR-2 antagonists (200 mg/kg/day, intraperitoneally) for 7 days. After treatment was completed, disease is quantified by measuring the thickness (swelling) in both hind feet of the mouse. This was compared to untreated mice (p<0.05 vs. vehicle control)."}, "[3]": {"tested_on": "ATP signaling", "assay": "Inhibition of ATP calcium signaling in pretreated cells", "assay_type": "cell-based", "conditions": "cells pretreated with antagonist", "procedure": "(§1) In order to assess the potential of peptides and molecules selected above to block PAR-2 signaling, cells were pretreated with potential antagonist peptides for a predetermined amount of time and were subsequently treated with various GPCR agonists. Confluent Lewis lung carcinoma (LLC) cells were loaded for 30-60 minutes with the fluorescent dye Fluo-4. Final concentration 4 uM Fluo-4, 0.02% pluronic acid in physiological buffer. Cells were then washed with assay buffer, (HBSS containing 1 mM CaCl2, 1 mM MgSO4, and 2.5 mM probenecid). Cells were stimulated with various doses of PAR-2 activating peptide, PAR-1 activating peptide or ATP. Fluorescence was monitored using a Wallac 1470 fluorescent plate reader. (See Al-ani et. al Journal of Pharmacology and Experimental Therapeutics 290:2, 753-760). Additional compound screening was performed using U87-MG human glioma cells. In this assay cells were labeled with FLIPR Calcium 3 dye (Component A), which was dissolved in 10 mls of Assay Buffer without Probenecid. Loading buffer was prepared by diluting Component A with an additional 90 mls of Assay Buffer without Probenecid, giving a total volume of a 100 ml. […] Calcium signaling was then measured using a Flexstation II (Molecular Devices) following manufacturer's instructions. […]"}, "[4]": {"biological_target": "T1, PAR-1 (Homo sapiens, UniProt P25116)", "T1 construct": "endogenous in cells", "T1 sequence (P25116 22-425)": "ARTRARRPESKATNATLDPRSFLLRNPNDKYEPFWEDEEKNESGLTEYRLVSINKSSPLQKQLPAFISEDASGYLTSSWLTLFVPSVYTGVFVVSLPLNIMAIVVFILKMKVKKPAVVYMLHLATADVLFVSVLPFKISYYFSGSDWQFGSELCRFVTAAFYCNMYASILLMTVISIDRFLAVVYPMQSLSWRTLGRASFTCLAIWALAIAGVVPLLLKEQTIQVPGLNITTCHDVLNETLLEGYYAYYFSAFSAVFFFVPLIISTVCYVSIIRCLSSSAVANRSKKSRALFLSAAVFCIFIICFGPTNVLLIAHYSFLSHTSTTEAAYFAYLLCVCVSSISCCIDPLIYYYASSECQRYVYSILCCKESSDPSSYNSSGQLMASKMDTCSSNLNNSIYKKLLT", "assay": "Inhibition of PAR-1 activation peptide (SFLLRN) calcium signaling in pretreated cells", "assay_type": "cell-based", "conditions": "cells pretreated with antagonist", "procedure": "as §1"}, "[5]": {"biological_target": "T2, PAR-2 (Mus musculus, UniProt P55086)", "T2 construct": "from tissue; host or cells: footpad of living C57BL6 mice", "T2 sequence (P55086 26-399)": "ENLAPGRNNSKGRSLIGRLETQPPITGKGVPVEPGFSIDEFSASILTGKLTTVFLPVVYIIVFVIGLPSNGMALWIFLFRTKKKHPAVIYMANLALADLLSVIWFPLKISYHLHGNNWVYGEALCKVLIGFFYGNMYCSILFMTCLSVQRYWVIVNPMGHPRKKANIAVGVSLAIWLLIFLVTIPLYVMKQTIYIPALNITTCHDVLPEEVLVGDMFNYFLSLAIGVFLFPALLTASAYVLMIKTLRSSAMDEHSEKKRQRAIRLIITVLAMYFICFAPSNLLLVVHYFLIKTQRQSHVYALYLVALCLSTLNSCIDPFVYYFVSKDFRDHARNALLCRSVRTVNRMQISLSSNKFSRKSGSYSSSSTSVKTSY", "assay": "PAR-2 agonist peptide induced murine footpad edema model", "assay_type": "in vivo", "conditions": "co-treatment in footpad, C57BL6 mice, 1 hour", "procedure": "C57BL6 mice were injected with 5-25 μg of SLIGKV (ENMD-1003) (SEQ ID NO:52) into their footpad, in the presence or absence of increasing amounts of various PAR-2 antagonists. One hour later, footpad (tarsus) thickness was measured to quantify inflammation (edema).\nThe inventors next assessed whether the LIGK (ENMD-1005) (SEQ ID NO:1) peptide had in vivo PAR-2 antagonistic activity. This was studied using an edema model where vascular permeability was induced by the PAR-2 agonist peptide. In this model, the PAR-2 peptide induces severe edema as previously reported (FIG. 6). This vascular response was blocked by co-treatment with the PAR-2 antagonist LIGK (ENMD-1005) (SEQ ID NO:1) (FIG. 6). Thus, LIGK (ENMD-1005) (SEQ ID NO:1) functions in vivo to block PAR-2 signaling."}, "[6]": {"tested_on": "angiogenesis in Matrigel plug, C57/BL6 mice", "assay": "In vivo Matrigel angiogenesis assay (FGF-2, hemoglobin content in the plug)", "design": "species or system mouse", "conditions": "subcutaneously daily for 6 days"}, "[7]": {"tested_on": "PAR-2", "assay": "PAR signalling activity: calcium mobilization (Fluo-4) in response to peptide", "assay_type": "cell-based", "conditions": "FIGS. 2A-2C", "procedure": "Confluent HUVECs, Lewis lung carcinoma cells or U87-MG glioma cells or HT29 colon carcinoma cells were loaded for 30-60 minutes with the fluorescent dye Fluo-4. Final concentration 4 uM Fluo-4, 0.02% pluronic acid in physiological buffer. Cells were then washed with assay buffer, (HBSS containing 1 mM CaCl2, 1 mM MgSO4, and 2.5 mM probenecid). Cells were stimulated with various doses of PAR-2 activating peptide, PAR-1 activating peptide or ATP. Fluorescence was monitored using a Wallac 1470 fluorescent plate reader. (See Al-ani et. al Journal of Pharmacology and Experimental Therapeutics 290:2, 753-760)\nCalcium mobilization curves of the PAR-2 agonist SLIGKV (ENMD-1003) (SEQ ID NO:52) compared with two truncated molecules LIGK (ENMD-1005) (SEQ ID NO:1) and LIGKV (ENMD-1007) (SEQ ID NO:2) are provided in FIG. 2A. […] Similar studies were performed on alanine substituted SLIGKV (ENMD-1003) (SEQ ID NO:52) peptides (FIGS. 2B and 2C)."}, "[8]": {"tested_on": "BALB/c mice, LPS induced weight loss", "assay": "Arthrogen-CIA induced body weight loss in mice", "assay_type": "in vivo, mouse", "conditions": "200 mg/kg/day intraperitoneally for 7 days", "procedure": "On day 0, BALB/c mice were injected i.v. with the 1-2 mg 1B11 monoclonal anti-collagen II antibody. On day 1, animals were injected intraperitoneally with 20 μg LPS, and treatment with PAR-2 antagonists (200 mg/kg/day intraperitoneally) for 7 days. After treatment was completed, disease is quantified by measuring the thickness (swelling) in both hind feet of the mouse. This was compared to untreated mice. This model results in significant weight loss associated with the administration of LPS."}}, "data": [{"compound": "Br.CC(C)CC(=O)N1CCN(C(=O)CCCCCN)CC1", "note": "[ENMD-1068, 1-(4-(3-methylbutanoyl)piperazin-1-yl)-(6′-aminohexan-1-amide) hydrobromide]", "values": [{"measurement": "PAR-2 AP2 Signaling Treated/Control", "setting": "[1]; mimetic antagonists, AUC of calcium mobilization treated/control, initially screened at 1 mM compound", "value": 0.58}, {"measurement": "PAR-2 antagonist activity in vitro (in words)", "setting": "[1]", "value": "inhibitor of PAR-2 signaling in vitro"}, {"measurement": "Effect on inflammation / arthritis", "setting": "[2]", "value": "inhibited inflammation"}, {"measurement": "Inhibitory effect on ATP signaling", "setting": "[3]", "value": "no inhibitory effects"}, {"measurement": "Inhibitory effect on PAR-1 signaling", "setting": "[4]", "value": "no inhibitory effects"}]}, {"compound": "LIGK [ENMD-1005]", "values": [{"measurement": "Effect on PAR-2 peptide induced edema (vascular response)", "setting": "[5]", "value": "blocked"}, {"measurement": "Block of AP2 signaling", "setting": "[1]; 1 mM LIGK against 100 uM SLIGKV (FIG. 3)", "value": "completely blocked"}, {"measurement": "IC50", "setting": "[1]; AP2 stimulated HT29 cells (FIG. 4)", "value": "< 500", "unit": "µM"}, {"measurement": "PAR-2 antagonist activity in vitro (in words)", "setting": "[1]", "value": "demonstrated antagonist activity"}, {"measurement": "Inhibition of angiogenesis (hemoglobin content in the plug)", "setting": "[6]; highest dose", "value": "more than 80%"}, {"measurement": "Inhibition of angiogenesis (in words)", "setting": "[6]", "value": "dose dependent inhibition of angiogenesis"}, {"measurement": "Effect on inflammation / arthritis", "setting": "[2]", "value": "inhibited inflammation"}, {"measurement": "Calcium mobilization / PAR-2 signaling activity (in words)", "setting": "[7]", "value": "Neither truncated molecule was able to induce calcium mobilization"}, {"measurement": "Inhibitory effect on ATP signaling", "setting": "[3]", "value": "no inhibitory effect"}, {"measurement": "Inhibitory effect on PAR-1 signaling", "setting": "[4]", "value": "no inhibitory effect"}, {"measurement": "Effect on LPS induced weight loss", "setting": "[8]", "value": "abrogated this LPS induced weight loss"}]}]}
